{"source": "patent US20090253662A1", "about": "“GENETIC RISK ASSESSMENT IN HEART FAILURE: IMPACT OF GENETIC VARIATION OF ALDOSTERONE SYNTHASE PROMOTER POLYMORPHISM” (NitroMed, Inc., priority 2005, published 2009)", "key": {"[1]": {"details": "cited from earlier work"}, "[2]": {"system": "subjects with severe heart failure", "details": "addition of spironolactone; cited from earlier work"}, "[3]": {"system": "African American subjects with heart failure", "assay": "Left ventricular remodeling by transthoracic echocardiography at baseline and six months", "assay_type": "in vivo, human", "protocol": "Subjects were followed to an endpoint of death or heart failure hospitalization. Quality of Life Assessment was performed by the Minnesota Living with Heart Failure Questionnaire at baseline and at the six month visit. Left ventricular function was assessed transthoracic echocardiography at baseline and six months. The primary endpoint for A-HeFT was a composite weighted score with three components: mortality, heart failure hospitalization and change in quality of life. Left ventricular remodeling was investigated in a subset of A-HeFT subjects by transthoracic echocardiography at baseline and at six months. Event free survival was compared by genotype class by Kaplan-Meier log rank analysis, using a linear model that predicts an intermediate phenotype for heterozygotes. Continuous variables such as composite scores were compared by genotype class by linear ANOVA. For the interaction of aldosterone genotype and the impact of therapy, outcomes analyzed by genotype were compared first overall and then separately by treatment subset, fixed combination of isosorbide dinitrate and hydralazine versus placebo."}, "[4]": {"system": "post myocardial infarction", "details": "addition post myocardial infarction; cited from earlier work"}, "[5]": {"system": "black cohorts with hypertension", "details": "cited from earlier work"}}, "note": "Structures can show the parent of a compound that is named as a salt."}
{"smiles": "NNc1nncc2ccccc12", "note": "[Hydralazine hydrochloride, hydralazine hydrochloride]", "values": [{"measurement": "solubility in alcohol", "setting": "[1]; alcohol", "value": "slightly soluble"}, {"measurement": "solubility in ether", "setting": "[1]; ether", "value": "very slightly soluble"}, {"measurement": "solubility in water", "setting": "[1]", "value": "soluble"}]}
{"smiles": "O=[N+]([O-])O[C@H]1CO[C@H]2[C@@H]1OC[C@H]2O[N+](=O)[O-]", "note": "[isosorbide dinitrate, 1,4,3,6-dianhydro-D-glucitol-2,5-dinitrate]", "values": [{"measurement": "solubility in organic solvents", "setting": "[1]; organic solvents such as ethanol, ether and chloroform", "value": "freely soluble"}, {"measurement": "solubility in water", "setting": "[1]", "value": "sparingly soluble"}]}
{"smiles": "CC(=O)S[C@@H]1CC2=CC(=O)CC[C@]2(C)[C@H]2CC[C@@]3(C)[C@@H](CC[C@@]34CCC(=O)O4)[C@H]12", "note": "[spironolactone]", "values": [{"measurement": "survival", "setting": "[2]", "value": "improved survival"}, {"measurement": "Left Ventricular Diastolic Diameter (LVDD) at 6 Months", "setting": "[3]; -344 CC genotype", "value": "6.5 ± 0.8", "unit": "cm"}, {"measurement": "Left Ventricular Ejection Fraction (LVEF) at 6 Months", "setting": "[3]; -344 CC genotype", "value": "32 ± 6", "unit": "%"}, {"measurement": "Left Ventricular Diastolic Diameter (LVDD) at 6 Months", "setting": "[3]; -344 TC genotype", "value": "6.3 ± 1.5", "unit": "cm"}, {"measurement": "Left Ventricular Diastolic Diameter (LVDD) at 6 Months", "setting": "[3]; -344 TT genotype", "value": "6.2 ± 1.4", "unit": "cm"}]}
{"smiles": "COC(=O)[C@@H]1CC2=CC(=O)CC[C@]2(C)[C@@]23O[C@@H]2C[C@@]2(C)[C@@H](CC[C@@]24CCC(=O)O4)[C@H]13", "note": "[eplerenone]", "values": [{"measurement": "survival", "setting": "[4]", "value": "improves survival"}, {"measurement": "effectiveness versus angiotensin II antagonists", "setting": "[5]", "value": "more effective than angiotensin II antagonists"}]}
